From paper PMC6917776, “Discovery of a chemical probe for PRDM9” (Nature Communications, 2019)

Tested on: H3K4me3 at known PRDM9 binding loci and control TSS loci
Assay: ChIP-qPCR of H3K4me3 in PRDM9-transfected HEK293T cells
Format: cell-based, human
Settings: Replicate 1; for 2^-dCq (H3K4me3 ChIP relative to H3 ChIP): Figure 7 C, Antibody H3K4me3; for 2^-dCq: H3K4me3 ChIP normalised to H3; for dCq (IP-Input): H3K4me3 antibody
Method: ChIP-qPCR assays were then conducted on known PRDM9 binding loci[26]. Ectopic expression of PRDM9^WT increased trimethylation of H3K4 (H3K4me3) at previously described PRDM9-specific intragenic and intergenic regions[26] (Fig. 7; Supplementary Fig. 12). […] The observed increases in H3K4me3 levels at intragenic and intergenic regions are therefore due directly to PRDM9 PR domain-dependent methylation activity, rather than through recruitment of other H3K4 methyltransferases or other indirect mechanisms.
ChIP qPCR analyses of H3K4me3 methylation levels of known PRDM9-bound loci and control loci. […] Concentrations used (µM) are indicated below each plot. (a–d) represent reported loci of PRDM9 methylation; (e, f) are transcriptional start sites (TSSs) which are not known loci of PRDM9 methylation. Data are normalized to total H3 and are presented as the mean ± upper and lower limits from two replicates. Representative plots of two independent experiments are shown in this figure. The coordinates and the genomic features associated with the assayed loci are indicated above each plot. Left Tailed Student's t-tests were performed by comparing DMSO (0 µM) treated cells to compound treated cells that have been transfected with the same plasmids. *p-value < 0.05 and **p-value < 0.01. Note that here we show a representative of two independent experiments (mean ± s.d of technical replicates) for our ChIP-qPCR experiments. Data obtained using this technique are inherently noisy due to stochastic differences in gene activity/histone positioning. Data are thus typically presented as representative rather than averaged. Source data are provided as a Source Data file.
HEK293T cells were transfected with 37.5 μg empty pcDNA3.1(+) vector (Invitrogen), or the same vector expressing either wild-type PRDM9 (PRDM9^WT) or a catalytically dead PRDM9 mutant (PRDM9^Mut) and 75 μL of Lipofectamine 2000 (Invitrogen) in 6 mL of Opti-MEM (GIBCO) for 48 h. […] ChIP assays were then performed as previously described. Briefly, cells were fixed in 1% formaldehyde and the fixation reaction was quenched in a final concentration of 0.1 M glycine. Cell pellets were first lysed in LB1 (50 mM HEPES-KOH pH 7.5, 140 mM NaCl, 1 mM EDTA, 10% Glycerol, 0.5% Igepal, 0.25% TritonX), washed once in LB2 Buffer (10 mM Tris-HCl pH 8, 200 mM NaCl, 1 mM EDTA, 0.5 mM EGTA) and finally sonicated in LB3 buffer (10 mM Tris-HCl pH 8, 100 mM NaCl, 1 mM EDTA, 0.5 mM EGTA, 0.1% Sodium deoxycholate, 0.5% N-laurosylsarcosine) using a bioruptor (Diagenode). Thereafter, 50 μg of chromatin was subjected to ChIP using the following antibodies purchased from Abcam: α-H3K4me3 (1:200, ab8580, lot:GR3207339-1) and α-H3 (1:250, ab1791, lot:GR300978-4). After extensive washing in RIPA wash buffer (50 mM HEPES-KOH pH 7.6, 100 mM LiCl, 1 mM EDTA, 1% Igepal, 0.7% Sodium Deoxycholate), DNA was eluted from beads. The eluted DNA was treated with RNase A and Proteinase K and purified using the QIAGEN PCR purification kit. qPCR was then carried out targeting the indicated loci (Supplementary Table 3). Upper and lower limits were defined by |2^−(dCq±s) − 2^−(∆Cq)|, where s = √((Standard deviation of Input Cq)^2 + (Standard deviation of Target Cq)^2). […]
formation. ChIP qPCR analyses of H3K4me3 methylation levels at known PRDM9-bound and control loci. Cells transfected with empty vector (negative control) or vectors overexpressing either wild-type PRDM9 (PRDM9 WT) or catalytically dead PRDM9 (PRDM9 MUT) were […]
Panels a-d represent reported loci of […]
(1 picture or pasted object on this page, not shown here)
PRDM9 methylation; e-f are TSSs which are not known sites of PRDM9 methylation. Data are normalized to total H3 and are presented as the mean ± upper and lower limits from two […]

[1] = chr2:40281930-40282015 Intragenic (SLC8A1-AS1), Empty Vector
[2] = chr2:40281930-40282015 Intragenic (SLC8A1-AS1), PRDM9
[3] = chr2:40281930-40282015 Intragenic (SLC8A1-AS1), PRDM9_Cat.Dead
[4] = chr2:128811847-128811944 (Intergenic), Empty Vector
[5] = chr2:128811847-128811944 (Intergenic), PRDM9
[6] = chr2:128811847-128811944 (Intergenic), PRDM9_Cat.Dead
[7] = chr3:165514798-165514911 Intragenic (BCHE), Empty Vector
[8] = chr3:165514798-165514911 Intragenic (BCHE), PRDM9
[9] = chr3:165514798-165514911 Intragenic (BCHE), PRDM9_Cat.Dead
[10] = chr8:49932778-49932856 (Intergenic), Empty Vector

COc1cc(OC)cc(-c2noc(N3CCN(C)C4(CCN(c5ccnc(C)c5)CC4)C3)n2)c1 [MRK-740]
2^-dCq (H3K4me3 ChIP relative to H3 ChIP) (chr2:40281930-40282015 Intragenic (SLC8A1-AS1), Plasmid Empty Vector, Drug Conc. 2.5): 0.4152 | 2^-dCq (H3K4me3 ChIP relative to H3 ChIP) (chr2:40281930-40282015 Intragenic (SLC8A1-AS1), Plasmid Empty Vector, Drug Conc. 5): 0.3238 | 2^-dCq (H3K4me3 ChIP relative to H3 ChIP) (chr2:40281930-40282015 Intragenic (SLC8A1-AS1), Plasmid Empty Vector, Drug Conc. 10): 0.507 | 2^-dCq (H3K4me3 ChIP relative to H3 ChIP) (chr2:40281930-40282015 Intragenic (SLC8A1-AS1), Plasmid PRDM9WT, Drug Conc. 2.5): 3.2145 | 2^-dCq (H3K4me3 ChIP relative to H3 ChIP) (chr2:40281930-40282015 Intragenic (SLC8A1-AS1), Plasmid PRDM9WT, Drug Conc. 5): 2.572 | 2^-dCq (H3K4me3 ChIP relative to H3 ChIP) (chr2:40281930-40282015 Intragenic (SLC8A1-AS1), Plasmid PRDM9WT, Drug Conc. 10): 2.028 | 2^-dCq [1]: 0.4145 | 2^-dCq [2]: 3.496 | 2^-dCq [3]: 0.3605 | 2^-dCq [4]: 0.4852 | 2^-dCq [5]: 2.263 | 2^-dCq [6]: 0.5507 | 2^-dCq [7]: 0.3297 | 2^-dCq [8]: 5.1 | 2^-dCq [9]: 0.2515 | 2^-dCq [10]: 0.5103 | 2^-dCq (chr8:49932778-49932856 (Intergenic), PRDM9): 4.604 | 2^-dCq (chr8:49932778-49932856 (Intergenic), PRDM9_Cat.Dead): 0.4888 | 2^-dCq (chr12:6643945-6644023 TSS (GAPDH), Empty Vector): 45.392 | 2^-dCq (chr12:6643945-6644023 TSS (GAPDH), PRDM9): 42.4818 | 2^-dCq (chr12:6643945-6644023 TSS (GAPDH), PRDM9_Cat.Dead): 88.4248 | 2^-dCq (chr19:8510167-8510261 TSS (HNRNPM), Empty Vector): 50.4703 | 2^-dCq (chr19:8510167-8510261 TSS (HNRNPM), PRDM9): 42.5896 | 2^-dCq (chr19:8510167-8510261 TSS (HNRNPM), PRDM9_Cat.Dead): 88.2214 | dCq (IP-Input) [1]: 1.27 | dCq (IP-Input) [2]: -1.806 | dCq (IP-Input) [3]: 1.472 | dCq (IP-Input) [4]: 1.0432 | dCq (IP-Input) [5]: -1.178 | dCq (IP-Input) [6]: 0.8606 | dCq (IP-Input) [7]: 1.601 | dCq (IP-Input) [8]: -2.351 | dCq (IP-Input) [9]: 1.992 | dCq (IP-Input) [10]: 0.9707
